Measured values: article PMC7377239, “Cardiovascular Effects of Polychlorinated Biphenyls and Their Major Metabolites” (Environmental Health Perspectives, 2020)
Where two headings read alike, the source gives them in different places.

Columns and labels:
HUVECs = assay: High-content imaging cytotoxicity in HUVECs, 24 h; type: cell-based, human; settings: Homo sapiens, HUVEC, 24 h, HUVEC; for viability at 0.01 µM / activity at 0.01 µM / viability at 0.1 µM / activity at 0.1 µM / viability at 1 µM / activity at 1 µM / viability at 10 µM / activity at 10 µM / viability at 100 µM / activity at 100 µM: 0.00 µM = 100.00; for viability at 0.1 µM / activity at 0.1 µM: 0.10 µM
Summary of the method: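 HUVECs (passages 1–5) were plated at 750 cells/well without fibronectin, grown to a monolayer (3–5 d) and exposed to compounds for 24 h at 37°C, 5% CO2. Hoechst 33342, MitoTracker Orange and calcein AM staining was imaged at 10×; readouts were normalized to 0.5% DMSO vehicle and fit to a four-parameter logistic model.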

[1] = system: iCell endothelial cells (human iPSC-derived ECs); assay: Tube formation (tubulogenesis) assay in iCell endothelial cells, 18 h; type: cell-based; settings: Homo sapiens, Endothelial cell, 18 hr; for activity at 0.1 µM: 0.10 µM
Summary of the method: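 iCell ECs (passages 1–5) seeded 7,500 cells/well on reduced-growth-factor Geltrex in starvation medium, exposed overnight at 37°C to compounds in triplicate concentration–response (0.5% DMSO vehicle). Calcein AM staining, 4× imaging, angiogenesis image analysis; readouts normalized to vehicle, four-parameter logistic fit, POD at 1 SD of vehicle; 100 μM assigned NOAEL if no response.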

[2] = HUVECs, 24 hr, read-out: huvec.cyto.24hr
[3] = HUVECs, 24 hr, read-out: huvec.mito.24hr
[4] = HUVECs, 24 hr, read-out: huvec.mitoint.24hr
[5] = HUVECs, 24 hr, read-out: huvec.nma.24hr
[6] = HUVECs, 24 hrs, read-out: huvec.tc.24hrs
[7] = iPSC-EC tube formation, 0.00 µM control = 100.00, read-out: endo.mtl.18hr
[8] = iPSC-EC tube formation, 0.00 µM control = 100.00, read-out: endo.tlps.18hr
[9] = iPSC-EC tube formation, 0.00 µM control = 100.00, read-out: endo.tta.18hr
[10] = iPSC-EC tube formation, 0.00 µM control = 100.00, read-out: endo.ttl.18hr

## O=C1C=CC(=O)C(c2ccc(Cl)cc2)=C1 [4-Cl-BQ, 2-(4-Chlorophenyl)benzo-2,5-quinone]
HUVECs; cyto, 24 hr, read-out: POD huvec.cyto.24hr
  minimal effective concentration: 0.00637 µM
HUVECs; mito, 24 hr, read-out: POD huvec.mito.24hr
  minimal effective concentration: 0.08 µM
HUVECs; mitoint, 24 hr, read-out: POD huvec.mitoint.24hr
  minimal effective concentration: 0.68 µM
HUVECs; nma, 24 hr, read-out: POD huvec.nma.24hr
  minimal effective concentration: 0.53 µM
HUVECs; tc, 24 hr, read-out: POD huvec.tc.24hr
  minimal effective concentration: 0.00637 µM
HUVECs; [2]
  viability at 0.01 µM: 89.2%
  viability at 0.1 µM: 101%
  viability at 1 µM: 75.5%
  viability at 10 µM: 56%
  viability at 100 µM: 87.4%
HUVECs; [3]
  activity at 0.01 µM: 87.8%
  activity at 0.1 µM: 101%
  activity at 1 µM: 69.3%
  activity at 10 µM: 30.5%
  activity at 100 µM: 1.29%
HUVECs; [4]
  activity at 0.01 µM: 92.4%
  activity at 0.1 µM: 105%
  activity at 1 µM: 58.6%
  activity at 10 µM: 10.8%
  activity at 100 µM: 44%
HUVECs; [5]
  activity at 0.01 µM: 101%
  activity at 0.1 µM: 101%
  activity at 1 µM: 81.8%
  activity at 10 µM: 74.2%
  activity at 100 µM: 73.5%
HUVECs; HUVECs, 24 hr, top concentration 100.00 µM, read-out: huvec.cyto.24hr POD
  minimal effective concentration: 0.00637 µM
HUVECs; HUVECs, 24 hr, top concentration 100.00 µM, read-out: huvec.mito.24hr POD
  minimal effective concentration: 0.08 µM
HUVECs; HUVECs, 24 hr, top concentration 100.00 µM, read-out: huvec.mitoint.24hr POD
  minimal effective concentration: 0.68 µM
HUVECs; HUVECs, 24 hr, top concentration 100.00 µM, read-out: huvec.nma.24hr POD
  minimal effective concentration: 0.53 µM
HUVECs; [6]
  viability at 0.01 µM: 89.3%
  viability at 0.1 µM: 101%
  viability at 1 µM: 75.5%
  viability at 10 µM: 56%
  viability at 100 µM: 99.4%
HUVECs; HUVECs, 24 hrs, top concentration 100.00 µM, read-out: huvec.tc.24hrs POD
  minimal effective concentration: 0.00637 µM
[1]; endothelial cells (endo), tube formation mtl, read-out: POD endo.mtl.18hr
  minimal effective concentration: 0.38 µM
[1]; endothelial cells (endo), tube formation tlps, read-out: POD endo.tlps.18hr
  minimal effective concentration: 1.04 µM
[1]; endothelial cells (endo), tube formation tta, read-out: POD endo.tta.18hr
  minimal effective concentration: 23 µM
[1]; endothelial cells (endo), tube formation ttl, read-out: POD endo.ttl.18hr
  minimal effective concentration: 11.8 µM
[1]; [7]
  activity at 0.01 µM: 102%
  activity at 0.1 µM: 96.3%
  activity at 1 µM: 77.5%
  activity at 10 µM: 68.9%
  activity at 100 µM: 59.2%
[1]; [8]
  activity at 0.01 µM: 96%
  activity at 0.1 µM: 114%
  activity at 1 µM: 70.1%
  activity at 10 µM: 45%
  activity at 100 µM: 9.31%
[1]; [9]
  activity at 0.01 µM: 156%
  activity at 0.1 µM: 135%
  activity at 1 µM: 111%
  activity at 10 µM: 99.9%
  activity at 100 µM: 0.43%
[1]; [10]
  activity at 0.01 µM: 153%
  activity at 0.1 µM: 131%
  activity at 1 µM: 109%
  activity at 10 µM: 77.6%
  activity at 100 µM: 0.77%
[1]; iPSC-EC tube formation, top concentration 100.00 µM, read-out: endo.mtl.18hr POD
  minimal effective concentration: 0.38 µM
[1]; iPSC-EC tube formation, top concentration 100.00 µM, read-out: endo.tlps.18hr POD
  minimal effective concentration: 1.04 µM
[1]; iPSC-EC tube formation, top concentration 100.00 µM, read-out: endo.tta.18hr POD
  minimal effective concentration: 23 µM
[1]; iPSC-EC tube formation, top concentration 100.00 µM, read-out: endo.ttl.18hr POD
  minimal effective concentration: 11.8 µM
